The text below walks through data of patent US20060177530A1, “Method of treating diabetes type II” (priority 2003, published 2006).

The series deals with mice. Kind of series: Safety and toxicity studies in mice. The series is classed as in vivo. To be noted: 0.5, 1 and 2 g/kg. On the procedure:
The clinical dose of HT is in the range of 1-2000 mg/day, more preferably in the range of 5-500 mg/day and most preferably 10-100 mg/day.

`OCCc1ccc(O)c(O)c1` [HT, hydroxytyrosol]: the “clinical or pathological toxicity” value is given as “no clinical or pathological toxicity”.
